Earlier results, collected in PMC10340494, “Sweeteners’ Influence on In Vitro α-Glucosidase Inhibitory Activity, Cytotoxicity, Stability and In Vivo Bioavailability of the Anthocyanins from Lingonberry Jams” (Foods, 2023).

Columns and labels:
[1] = test system: maltase; design: method as in PMID 18615280
[2] = test system: sucrase; design: method as in PMID 18615280

SMILES: OC[C@H]1O[C@@H](Oc2cc3c(O)cc(O)cc3[o+]c2-c2ccc(O)c(O)c2)[C@H](O)[C@@H](O)[C@H]1O [cyanidin-3-galactoside]
- Inhibition of maltase [1]: 35%
- Inhibition of sucrase [2]: 64%
